Assay results reported in patent US7115574B2, “System and method for support legacy operating system booting in a legacy-free system” (priority 2001, dated 2006).

Experiments:
C. albicans = test: Horse serum-induced germ tube formation (germination) of C. albicans; assay type: cell-based; conditions: 10^−6M, 60 minutes at 37° C. after horse serum induction
Experimental: C. albicans from stationary phase cultures were washed twice with distilled water and suspended in HBSS to a final concentration of 2×10^6/ml. Hyphal growth was induced by addition of 10% inactivated horse serum (GIBCO/BRL, Great Britain) to yeast incubated for 45 minutes at 37° C. with continuous shaking. Horse serum was removed by washing cells twice with HBSS and incubation was continued for 60 minutes at 37° C. in the presence of α-MSH(1-13) (SEQ ID NO: 3), (6-13) (SEQ ID NO: 2) or (11-13) (SEQ ID NO: 1) at a concentration of 10^−6M with continuous shaking. The percentage of filamentous cells was evaluated under a light microscope with the aid of hemocytometer. Experiments were run in triplicate and at least 200 cells were scored. Photomicrographs were taken with a MC100 camera attached to an Axioskop Zeiss microscope.

[1] = tested on: carrageenan-induced swelling in rat paws; test: Rat paw edema test (carrageenan); assay type: in vivo, Sprague-Dawley rats; conditions: 100 mg/kg intraperitoneal, rats
Experimental: A second in vivo bioassay for anti-inflammatory activity was conducted in which the action of the tripeptide (SEQ ID NO: 1) was compared to that of hydrocortisone. In this assay, the two agents were given at similar doses and tested for their independent ability to inhibit carrageenan-induced swelling in rat paws. This assay, the rat paw edema test, was conducted generally as it is typically performed in the art, for example, as described by Winter et al. (1962), Proc. Soc. Exp. Biol. Med., 111:544 or in U.S. Pat. No. 4,150,137.
Briefly, the assay was performed as follows. Each of twenty-four male Sprague-Dawley rats was assigned to one of four groups: Tripeptide treatment and controls (matched according to body weight and initial paw volume), hydrocortisone treatment and matched controls. The volume of the right rear paw of the test and control animals was determined using standard procedures and a mercury displacement volumetric technique. […] One hour later 0.5 ml of 1% lambda carrageenan in saline solution was injected into the right rear paw of the animals and the paw volume was again recorded (baseline measure). For comparison of the effects of the two treatments, paw volume of experimental animals measured at hourly intervals was expressed as a percentage of the volume change of their respective matched controls.

[2] = tested on: histamine-induced blue weal formation; test: Sparrow/Wilhelm histamine-induced blue weal assay; assay type: in vivo, New Zealand white rabbits; conditions: for Result (relative intensity of blue weals, experimental vs control): scored 30 minutes after histamine
Source text: This model relies on the principal that localized, subcutaneous injections of histamine will result in a localized increase in capillary permeability. When the test animal has been pretreated with blue dye intravenously, the localized histamine injections will elicit blue-colored “weals” around the injection site. Thus, by preadministration of an effective anti-inflammatory agent the blue color of the histamine-induced weals will be much less pronounced, with the amount of color reduction being dependent on the relative amount and/or potency of the anti-inflammatory agent used.
Non-moulting New Zealand white rabbits were used for the Sparrow/Wilhelm assay. The skin of the rabbits back was closely clipped 1-2 days previous to the experiment, but not depilated, and the rabbits were kept warm until tested. […] Control rabbits received sham injections. Fifteen minutes following injection of the agent or sham, the rabbits received approximately 30 mg/kg of Pontamine blue dye as a 2.5% solution in 0.45% saline, into an exposed vein. Immediately following dye injections, histamine was injected intradermally in a 0.10 ml volume (1.25 mg histamine 0.1 ml volume) at several sites on each side of the spine. In all, one vertical row of six injections were made on each side of the spine. The relative intensity of the resultant blue weals were scored by an independent observer 30 minutes after histamine injection.

[3] = tested on: edema caused by intradermal injection of recombinant human IL-1β in the mouse ear; test: IL-1β-induced ear edema with centrally administered α-MSH and receptor antagonists; assay type: in vivo, BALB/c mice; conditions: α-MSH(1-13) given centrally with propranolol injected centrally
Experimental: See Macaluso, A., McCoy, D., Ceriani, G., Watanabe, T., Biltz, J., Catania, A., and Lipton, J. M., Anti-inflammatory Influences of a-MSH Molecules: Central Neurogenic and Peripheral Actions, 14(4), J. of Neuroscience 2377-2382 (1994). Female BALB/c mice (Simonsen Laboratories, Gilroy, Calif.), 7-8 weeks old, were housed at 23-25° C. in groups not exceeding five animals per cage [28 cm (L)×18 cm (W)×13 cm (H)]. Before the experiments they were acclimatized for not less than 1 week before experimentation to standard lighting and temperature conditions with food and water freely available.
Mice were anesthetized with 10% pentobarbital sodium solution (1 mg/mouse, 50 mg/ml, Nembutal sodium solution; Abbott Laboratories, North Chicago, Ill.). Baseline ear thickness measurements were taken with a spring-loaded micrometer (Swiss Precision Instruments, Los Angeles, Calif.). Ear thickness was expressed in centimeters and was measured at least twice at each time point. The average thickness of unstimulated ears was […]. Inflammation was induced by injecting 20 μl of recombinant human IL-1β (1500 U; Genzyme, Cambridge, Mass.) directly into the skin (intradermally) of one ear of each mouse using a 28 gauge needle (Hiltz et al., 1992). Measures of ear thickness were repeated 4 and 6 hr later, while the mice were under sodium pentobarbital anesthesia.
Several agents were administered at the time of ear challenge to pharmacologically block certain receptors: atropine (Sigma Chemical Co.; 150 μg i.p.), a muscarinic receptor blocker that acts on autonomic end-organ receptors, was chosen because of links between inflammation and modulation of pain and the finding that muscarinic antagonists increase pain threshold (Hartvig et al., 1989); phentolamine (Sigma; 150 μg i.p.) an agent that competes for occupancy of α-adrenergic receptors; propranolol (Sigma; 150 μg, i.p.; 30 μg, i.c.v.), a nonspecific competitive antagonist for β-adrenergic receptors.
Because of the size of the experiments and the requirement for several shipments of animals over time, several experiments were performed, each with complete treatment and control groups drawn from the same shipment of mice. Omnibus analysis of variance techniques (Dynastat, Washington, D.C.) were used to test overall differences among group means. Tukey's protected t test was used to compare individual means. Probability values of <0.05 were considered significant.

[4] = Lipton and Catania, Immunol. Today 1997; cited from earlier work

Row | Substance | reduction in the number of filamentous cells / inhibition of germ tube formation (C. albicans) | reduction in the number of filamentous cells / inhibition of germ tube formation (C. albicans; listed as tripeptide) | anti-inflammatory activity (inhibition of paw edema) ([1]; between 1 and 4 hours) | decrease in paw inflammation ([1]; first hour after carrageenan injection) | Result (relative intensity of blue weals, experimental vs control) ([2]; 0.625 ug/kg protected tripeptide intravenously) | Result (relative intensity of blue weals, experimental vs control) ([2]; 1.25 ug/kg protected tripeptide intravenously) | Result (relative intensity of blue weals, experimental vs control) ([2]; 5 ug/kg protected tripeptide intravenously) | Result (relative intensity of blue weals, experimental vs control) ([2]; 10 ug/kg protected tripeptide intravenously) | lowest intravenous dose giving appreciable reduction in histamine-induced blue weal formation ([2]; rabbits, intravenous) | inhibition of ear edema by α-MSH ([3]; 4 hr) | inhibition of ear edema by α-MSH ([3]; 6 hr) | toxicity [4]
1 | Ac-Lys-Pro-Val-NH2 [α-MSH(11-13)] | approximately 56% | 54-58% | nearly identical anti-inflammatory activity | no such reduction was observed | No difference | E lighter than C | E lighter than C | E lighter than C | 1.25 µg/kg |  |  | 
2 | SYSMEHFRWGKPV [α-MSH(1-13)] |  |  |  |  |  |  |  |  |  | 36% | 32% | very low toxicity
